This note sets out measurements from ChEMBL document CHEMBL4000221 (Bioorg Med Chem Lett, 2017).

For assay [1], the species on record is Homo sapiens. Briefly: Selectivity ratio of EC50 for inhibition of [3H]-S-citalopram dissociation from SERT allosteric modulator site (S2) (unknown origin) expressed in African green monkey COS1 cell membranes to IC50 for [3H]5-HT uptake by SERT primary site (S1) (unknown origin) expressed in African green monkey COS1 cells. The assay is classed as cell-based.

Assay [2] concerns the target T1, Sodium-dependent serotonin transporter (Homo sapiens, UniProt P31645).
For assay [3], the species on record is Homo sapiens. Briefly: Selectivity ratio of EC50 for inhibition of [3H]-S-citalopram dissociation from human SERT allosteric modulator site (S2) expressed in African green monkey COS7 cell membranes to IC50 for displacement of [3H]-S-citalopram from human SERT primary site (S1) expressed in African green monkey COS7 cell membranes. (In general: Loss of bound radioactivity is the signal in a displacement assay; it reports binding, not function.)

Assay [4] has as its target T1, Sodium-dependent serotonin transporter. This is another data set of the same source.
For assay [5] the target is unchanged. Briefly: Inhibition of [3H]5-HT uptake by SERT primary site (S1) (unknown origin) expressed in African green monkey COS1 cells after 10 mins by TopCount scintillation counting method. The assay is classed as cell-based.
For assay [6] the target is unchanged. The source holds these as a separate data set.

T1 sequence (P31645 whole entry): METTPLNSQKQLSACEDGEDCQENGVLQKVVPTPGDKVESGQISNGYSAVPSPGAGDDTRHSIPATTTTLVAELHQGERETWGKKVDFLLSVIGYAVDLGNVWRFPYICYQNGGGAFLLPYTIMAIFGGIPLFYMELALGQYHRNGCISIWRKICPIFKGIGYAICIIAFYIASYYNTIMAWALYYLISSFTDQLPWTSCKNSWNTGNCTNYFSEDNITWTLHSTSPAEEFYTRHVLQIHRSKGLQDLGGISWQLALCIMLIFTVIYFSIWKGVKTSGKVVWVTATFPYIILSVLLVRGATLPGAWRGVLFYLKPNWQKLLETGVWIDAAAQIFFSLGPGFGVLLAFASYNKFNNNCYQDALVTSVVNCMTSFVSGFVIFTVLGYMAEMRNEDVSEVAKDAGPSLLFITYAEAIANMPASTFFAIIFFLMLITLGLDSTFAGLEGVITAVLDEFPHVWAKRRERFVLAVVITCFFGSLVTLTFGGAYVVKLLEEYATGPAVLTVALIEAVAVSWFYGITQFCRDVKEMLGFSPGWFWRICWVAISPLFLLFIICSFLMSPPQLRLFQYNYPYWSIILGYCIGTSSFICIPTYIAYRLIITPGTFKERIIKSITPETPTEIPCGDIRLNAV

As to `CN(C)CCCC1(c2ccc3ccccc3c2)OCc2cc(C#N)ccc21` (stereo in doubt; 1) [listing 1 of 2 here], the Selectivity ratio in the assay filed under Homo sapiens [1] was 2000.

For `CN(C)CCCC1(c2cccc3ccccc23)OCc2cc(C#N)ccc21` (stereo in doubt; 2) [listing 1 of 2 here], in the assay filed under Homo sapiens [1], the Selectivity ratio is 76.

Take `CCCN(C)CCC[C@]1(c2ccc(F)cc2)OCc2cc(C#N)ccc21`: it took 2400 nM to reach half-maximal inhibition in assay [2] (IC50). The Selectivity ratio in the assay filed under Homo sapiens [3] came to 8.5. Moreover, the EC50 (in general, the concentration that produces a half-maximal response) in assay [4] was determined as 20300 nM.

With `CCCCN(C)CCC[C@@]1(c2ccc(F)cc2)OCc2cc(C#N)ccc21`, the midpoint of inhibition in assay [2], the IC50, lay at 160 nM. Moreover, the Selectivity ratio in the assay listed under Homo sapiens [3] is 18. Moreover, in assay [4], the midpoint of the response, the EC50, lay at 2900 nM.

With `CN(C)CCCC1(c2cc(Cl)cc(Cl)c2)OCc2ccccc21` (single isomer, unassigned; enantiomer 1) [listing 1 of 2 here], in assay [5], the IC50 (commonly the point on the concentration scale where inhibition reaches its midpoint) came to 350 nM. In assay [6], this molecule showed an EC50 of 8800 nM.

For `CCN(C)CCC[C@@]1(c2ccc(F)cc2)OCc2cc(C#N)ccc21`, 280 nM corresponded to half-maximal inhibition in assay [2] (IC50). Further, in the assay filed under Homo sapiens [3], the Selectivity ratio is 28. In assay [4], this molecule displayed an EC50 of 7700 nM.

Regarding `CN(C)CCCC1(c2ccc(F)cc2)OCc2ccc3ccccc3c21` (stereo not drawn), the Selectivity ratio in the assay listed under Homo sapiens [1] amounted to 3200. In assay [5], this molecule had an IC50 of 12 nM. Further, the response in assay [6] was half-maximal at 38000 nM (EC50).

Take `CN(C)CCCC1(c2ccc(F)cc2)OCc2c1ccc1ccccc21` (stereo not drawn): in the assay listed under Homo sapiens [1], the Selectivity ratio worked out at 7800. This molecule returned an IC50 in assay [5] of 4 nM. The same molecule yielded an EC50 in assay [6] of 31000 nM.

In assay [5], `CN(C)CCCC1(c2ccc3ccccc3c2)OCc2cc(C#N)ccc21` (single isomer, unassigned; enantiomer 2) [listing 1 of 2 here] had an IC50 of 150 nM. In assay [6], this molecule returned an EC50 of 55000 nM.

On to `CN(C)CCCC1(c2ccc3ccccc3c2)OCc2cc(C#N)ccc21` (stereo in doubt; 1) [listing 2 of 2 here], for which, in assay [5], half-maximal inhibition (IC50) required 34 nM. For the same molecule, the midpoint of the response in assay [6], the EC50, lay at 68000 nM.

For the molecule `CN(C)CCCC1(c2ccc3ccccc3c2)OCc2cc(C#N)ccc21` (single isomer, unassigned; enantiomer 2) [listing 2 of 2 here], the Selectivity ratio in the assay filed under Homo sapiens [1] amounted to 370.

In the case of `CN(C)CCCC1(c2ccc3ccccc3c2)OCc2cc(C#N)ccc21` (single isomer, unassigned) [listing 1 of 2 here], the Selectivity ratio in the assay filed under Homo sapiens [1] stood at 4100.

For `CN(C)CCCC1(c2cccc3ccccc23)OCc2cc(C#N)ccc21` (single isomer, unassigned; enantiomer 1) [listing 1 of 2 here], the IC50 in assay [5] was found to be 740 nM. In addition, in assay [6], the EC50 turned out to be 14000 nM.

In the case of `CN(C)CCCC(=O)c1ccc2c(c1)COC2(CCCN(C)C)c1ccc(F)cc1` (stereo not drawn), the Selectivity ratio in the assay filed under Homo sapiens [1] amounted to 450000. In assay [5], this molecule yielded an IC50 of 1.6 nM. For the same molecule, the EC50 in assay [6] was found to be 714000 nM.

In turn, `CN(C)CCCC1(c2cc(Cl)cc(Cl)c2)OCc2ccccc21` (stereo in doubt; 4) [listing 1 of 2 here] returned an IC50 in assay [5] of 340 nM. Also, in assay [6], a half-maximal response (EC50) required 15000 nM.

Consider `CN(C)CCCC1(c2cccc3ccccc23)OCc2cc(C#N)ccc21` (single isomer, unassigned; enantiomer 2) [listing 1 of 2 here], for which, in the assay listed under Homo sapiens [1], the Selectivity ratio came to 68.

`CN(C)CCCC1(c2cccc3ccccc23)OCc2cc(C#N)ccc21` (stereo in doubt; 2) [listing 2 of 2 here] came in with an IC50 in assay [5] of 250 nM. Also, in assay [6], the EC50 amounted to 19000 nM.

As for `CN(C)CCCC1(c2cc(Cl)cc(Cl)c2)OCc2ccccc21` (stereo in doubt; 4) [listing 2 of 2 here], the Selectivity ratio in the assay filed under Homo sapiens [1] came out at 44.

Regarding `CN(C)CCCC1(c2cc(Cl)cc(Cl)c2)OCc2ccccc21` (single isomer, unassigned; enantiomer 2) [listing 1 of 2 here], the Selectivity ratio in the assay filed under Homo sapiens [1] turned out to be 67.

In assay [5], `CN(C)CCCC1(c2cc(Cl)cc(Cl)c2)OCc2ccccc21` (single isomer, unassigned; enantiomer 2) [listing 2 of 2 here] showed an IC50 of 300 nM. Also, the response in assay [6] was half-maximal at 20000 nM (EC50).

For `CN(C)CCCC1(c2cccc3ccccc23)OCc2cc(C#N)ccc21` (single isomer, unassigned; enantiomer 2) [listing 2 of 2 here], the IC50 in assay [5] was 280 nM. In assay [6], this molecule displayed an EC50 of 19000 nM.

As for `CN(C)CCCC1(c2ccc(Cl)c(Cl)c2)OCc2ccccc21` (stereo not drawn), the Selectivity ratio in the assay filed under Homo sapiens [1] turned out to be 2300. This molecule also registered an IC50 in assay [5] of 13 nM. It took 29600 nM to reach a half-maximal effect in assay [6] (EC50).

In assay [5], `CN(C)CCCC1(c2ccc3ccccc3c2)OCc2cc(C#N)ccc21` (single isomer, unassigned) [listing 2 of 2 here] returned an IC50 of 10 nM. Also, the EC50 in assay [6] is 41000 nM.

For `CN(C)CCCC1(c2cccc3ccccc23)OCc2cc(C#N)ccc21` (single isomer, unassigned; enantiomer 1) [listing 2 of 2 here], the Selectivity ratio in the assay listed under Homo sapiens [1] came to 19.

As for `CCN(C)CCC[C@]1(c2ccc(F)cc2)OCc2cc(C#N)ccc21`, the IC50 in assay [2] was 2300 nM. In the assay filed under Homo sapiens [3], the Selectivity ratio was determined as 8.7. Further, the EC50 in assay [4] is 19900 nM.

In the case of `CCCCCN(C)CCC[C@@]1(c2ccc(F)cc2)OCc2cc(C#N)ccc21`, the IC50 in assay [2] turned out to be 75 nM. Moreover, the Selectivity ratio in the assay filed under Homo sapiens [3] was determined as 21. For the same molecule, the EC50 in assay [4] came out at 1600 nM.

In the case of `CCCCN(C)CCC[C@]1(c2ccc(F)cc2)OCc2cc(C#N)ccc21`, the IC50 in assay [2] came out at 1100 nM. In the assay listed under Homo sapiens [3], the Selectivity ratio is 13. In assay [4], this molecule had an EC50 of 14500 nM.

In the case of `CN(C)CCCC1(c2ccc(F)cc2)OCc2cc3ccccc3cc21` (stereo not drawn), in the assay filed under Homo sapiens [1], the Selectivity ratio was determined as 12000. This molecule also returned an IC50 in assay [5] of 8 nM. This molecule also yielded an EC50 in assay [6] of 95000 nM.

As to `CCCN(C)CCC[C@@]1(c2ccc(F)cc2)OCc2cc(C#N)ccc21`, the IC50 in assay [2] was determined as 190 nM. Further, in the assay filed under Homo sapiens [3], the Selectivity ratio was 31. Also, in assay [4], a half-maximal response (EC50) required 5900 nM.

As to `CN(C)CCCC1(c2cc(Cl)cc(Cl)c2)OCc2ccccc21` (single isomer, unassigned; enantiomer 1) [listing 2 of 2 here], in the assay listed under Homo sapiens [1], the Selectivity ratio worked out at 25.
